# Read-outs that look alike come from different tables or passages of the source.
# Tests used:
# Experiment in all cases: Test B pre-/postemergence plant response
# Type in all cases: in vivo
# [1] = system: green foxtail (Setaria viridis); conditions: Setaria viridis, read-out: Plant response rating, Foxtail, Green
# Outline: (§1)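 Visually scored on a 0 to 100 scale after 13 to 15 days in greenhouse versus controls. Treatments were preemergence on seeded loam/sand soil and postemergence on 1- to 4-leaf plants.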
# [2] = system: johnsongrass (Sorghum halepense); conditions: for pest or weed control at 31 g/ha: 31 g ai/ha; for pest or weed control at 125 g/ha: 125 g ai/ha
# Outline: as §1
# kochia (Kochia scoparia) = conditions: for pest or weed control at 31 g/ha: 31 g ai/ha; for pest or weed control at 125 g/ha: 125 g ai/ha
# Outline: as §1
# [3] = system: lambsquarters (Chenopodium album); conditions: for pest or weed control at 31 g/ha: 31 g ai/ha; for pest or weed control at 125 g/ha: 125 g ai/ha
# Outline: as §1
# [4] = system: large crabgrass (Digitaria sanguinalis); conditions: for pest or weed control at 31 g/ha: 31 g ai/ha; for pest or weed control at 125 g/ha: 125 g ai/ha
# Outline: as §1
# [5] = system: ragweed (common ragweed, Ambrosia elatior); conditions: for pest or weed control at 125 g/ha: 125 g ai/ha
# Outline: as §1
# [6] = system: velvetleaf (Abutilon theophrasti); conditions: for pest or weed control at 125 g/ha: 125 g ai/ha
# Outline: as §1
# [7] = system: woolly cupgrass (Eriochloa villosa); conditions: for pest or weed control at 31 g/ha: 31 g ai/ha; for pest or weed control at 125 g/ha: 125 g ai/ha
# Outline: as §1
# [8] = system: yellow nutsedge (Cyperus esculentus); conditions: for pest or weed control at 31 g/ha: 31 g ai/ha; for pest or weed control at 125 g/ha: 125 g ai/ha
# Outline: as §1
# [9] = 62 g ai/ha, postemergence, 0 is no effect, 100 is complete control, 13 to 15 days
# [10] = Preemergence, 250 g ai/ha, 0 to 100 scale
structure (smiles),measurement,setting,value
"O=C1CCCC(O)=C1C(=O)c1cnc(-c2cccnc2)n(-c2ccccc2)c1=O [Compound 113, 5-[(2-hydroxy-6-oxo-1-cyclohexen-1-yl)carbonyl]-3-phenyl-2-(3-pyridinyl)-4(3H)-pyrimidone]",pest or weed control at 250 g/ha,"[1]; post-emergence, Postemergence, 250 g ai/ha, scale 0 to 100 (0 no effect, 100 complete control)",95%
same,pest or weed control at 31 g/ha,"[1]; pre-emergence, Preemergence, 31 g ai/ha, scale 0 to 100 (0 no effect, 100 complete control)",10%
same,pest or weed control at 62 g/ha,"[1]; pre-emergence, Preemergence, 62 g ai/ha, scale 0 to 100, 0 no effect, 100 complete control",40%
same,pest or weed control at 125 g/ha,"[1]; pre-emergence, Preemergence, 125 g ai/ha, scale 0 to 100, 0 no effect, 100 complete control",60%
same,Johnsongrass plant response rating (0 to 100 scale),[2]; [9],85
same,Johnsongrass plant response rating,[2]; [10],70
same,pest or weed control at 31 g/ha,"[2]; Sorghum halepense, post-emergence, postemergence, scale 0 to 100, 0 is no effect, 100 is complete control, read-out: Plant response rating, Johnsongrass",65%
same,pest or weed control at 125 g/ha,"[2]; Sorghum halepense, post-emergence, Postemergence, scale 0 to 100 (0 no effect, 100 complete control), read-out: Plant response rating, Johnsongrass",90%
same,pest or weed control at 250 g/ha,"[2]; Sorghum halepense, post-emergence, Postemergence, 250 g ai/ha, scale 0 to 100 (0 no effect, 100 complete control), read-out: Plant response rating, Johnsongrass",95%
same,pest or weed control at 31 g/ha,"[2]; Sorghum halepense, pre-emergence, Preemergence, scale 0 to 100 (0 no effect, 100 complete control), read-out: Plant response rating, Johnsongrass",0%
same,pest or weed control at 62 g/ha,"[2]; Sorghum halepense, pre-emergence, Preemergence, 62 g ai/ha, scale 0 to 100, 0 no effect, 100 complete control, read-out: Plant response rating, Johnsongrass",5%
same,pest or weed control at 125 g/ha,"[2]; Sorghum halepense, pre-emergence, Preemergence, scale 0 to 100, 0 no effect, 100 complete control, read-out: Plant response rating, Johnsongrass",60%
same,Kochia plant response rating (0 to 100 scale),kochia (Kochia scoparia); [9],100
same,pest or weed control at 31 g/ha,"kochia (Kochia scoparia); Bassia scoparia, post-emergence, postemergence, scale 0 to 100, 0 is no effect, 100 is complete control, read-out: Plant response rating, Kochia",98%
same,pest or weed control at 125 g/ha,"kochia (Kochia scoparia); Bassia scoparia, post-emergence, Postemergence, scale 0 to 100 (0 no effect, 100 complete control), read-out: Plant response rating, Kochia",100%
same,pest or weed control at 250 g/ha,"kochia (Kochia scoparia); Bassia scoparia, post-emergence, Postemergence, 250 g ai/ha, scale 0 to 100 (0 no effect, 100 complete control), read-out: Plant response rating, Kochia",100%
same,pest or weed control at 31 g/ha,"kochia (Kochia scoparia); Bassia scoparia, pre-emergence, Preemergence, scale 0 to 100 (0 no effect, 100 complete control), read-out: Plant response rating, Kochia",80%
same,pest or weed control at 62 g/ha,"kochia (Kochia scoparia); Bassia scoparia, pre-emergence, Preemergence, 62 g ai/ha, scale 0 to 100 (0 no effect, 100 complete control), read-out: Plant response rating, Kochia",80%
same,pest or weed control at 125 g/ha,"kochia (Kochia scoparia); Bassia scoparia, pre-emergence, Preemergence, scale 0 to 100, 0 no effect, 100 complete control, read-out: Plant response rating, Kochia",85%
same,Kochia plant response rating,kochia (Kochia scoparia); [10],90
same,Lambsquarters plant response rating (0 to 100 scale),[3]; [9],98
same,pest or weed control at 31 g/ha,"[3]; Chenopodium album, post-emergence, postemergence, scale 0 to 100, 0 is no effect, 100 is complete control, read-out: Plant response rating, Lambsquarters",95%
same,pest or weed control at 125 g/ha,"[3]; Chenopodium album, post-emergence, Postemergence, scale 0 to 100 (0 no effect, 100 complete control), read-out: Plant response rating, Lambsquarters",98%
same,pest or weed control at 250 g/ha,"[3]; Chenopodium album, post-emergence, Postemergence, 250 g ai/ha, scale 0 to 100 (0 no effect, 100 complete control), read-out: Plant response rating, Lambsquarters",98%
same,pest or weed control at 31 g/ha,"[3]; Chenopodium album, pre-emergence, Preemergence, scale 0 to 100 (0 no effect, 100 complete control), read-out: Plant response rating, Lambsquarters",98%
same,pest or weed control at 62 g/ha,"[3]; Chenopodium album, pre-emergence, Preemergence, 62 g ai/ha, scale 0 to 100, 0 no effect, 100 complete control, read-out: Plant response rating, Lambsquarters",100%
same,pest or weed control at 125 g/ha,"[3]; Chenopodium album, pre-emergence, Preemergence, scale 0 to 100, 0 no effect, 100 complete control, read-out: Plant response rating, Lambsquarters",100%
same,Lambsquarters plant response rating,[3]; [10],100
same,"Crabgrass, Large plant response rating (0 to 100 scale)",[4]; [9],90
same,pest or weed control at 31 g/ha,"[4]; Digitaria sanguinalis, post-emergence, postemergence, scale 0 to 100, 0 is no effect, 100 is complete control, read-out: Plant response rating, Crabgrass, Large",85%
same,pest or weed control at 125 g/ha,"[4]; Digitaria sanguinalis, post-emergence, Postemergence, scale 0 to 100 (0 no effect, 100 complete control), read-out: Plant response rating, Crabgrass, Large",95%
same,pest or weed control at 250 g/ha,"[4]; Digitaria sanguinalis, post-emergence, Postemergence, 250 g ai/ha, scale 0 to 100 (0 no effect, 100 complete control), read-out: Plant response rating, Crabgrass, Large",95%
same,pest or weed control at 31 g/ha,"[4]; Digitaria sanguinalis, pre-emergence, Preemergence, scale 0 to 100 (0 no effect, 100 complete control), read-out: Plant response rating, Crabgrass, Large",70%
same,pest or weed control at 62 g/ha,"[4]; Digitaria sanguinalis, pre-emergence, Preemergence, 62 g ai/ha, scale 0 to 100, 0 no effect, 100 complete control, read-out: Plant response rating, Crabgrass, Large",98%
same,pest or weed control at 125 g/ha,"[4]; Digitaria sanguinalis, pre-emergence, Preemergence, scale 0 to 100, 0 no effect, 100 complete control, read-out: Plant response rating, Crabgrass, Large",100%
same,"Crabgrass, Large plant response rating",[4]; [10],100
same,Ragweed plant response rating (0 to 100 scale),[5]; [9],95
same,pest or weed control at 125 g/ha,"[5]; Ambrosia artemisiifolia, post-emergence, 360 h, Postemergence, scale 0 to 100 (0 no effect, 100 complete control), read-out: Plant response rating, Ragweed",98%
same,pest or weed control at 250 g/ha,"[5]; Ambrosia artemisiifolia, post-emergence, 360 h, Postemergence, 250 g ai/ha, scale 0 to 100 (0 no effect, 100 complete control), read-out: Plant response rating, Ragweed",98%
same,pest or weed control at 31 g/ha,"[5]; Ambrosia artemisiifolia, pre-emergence, 360 h, Preemergence, 31 g ai/ha, scale 0 to 100 (0 no effect, 100 complete control), read-out: Plant response rating, Ragweed",55%
same,pest or weed control at 62 g/ha,"[5]; Ambrosia artemisiifolia, pre-emergence, 360 h, Preemergence, 62 g ai/ha, scale 0 to 100 (0 no effect, 100 complete control), read-out: Plant response rating, Ragweed",90%
same,pest or weed control at 125 g/ha,"[5]; Ambrosia artemisiifolia, pre-emergence, 360 h, Preemergence, scale 0 to 100, 0 no effect, 100 complete control, read-out: Plant response rating, Ragweed",95%
same,Ragweed plant response rating,[5]; [10],98
same,Velvetleaf plant response rating (0 to 100 scale),[6]; [9],95
same,pest or weed control at 125 g/ha,"[6]; Abutilon theophrasti, post-emergence, 360 h, Postemergence, scale 0 to 100 (0 no effect, 100 complete control), read-out: Plant response rating, Velvetleaf",98%
same,pest or weed control at 250 g/ha,"[6]; Abutilon theophrasti, post-emergence, 360 h, Postemergence, 250 g ai/ha, scale 0 to 100 (0 no effect, 100 complete control), read-out: Plant response rating, Velvetleaf",98%
same,pest or weed control at 31 g/ha,"[6]; Abutilon theophrasti, pre-emergence, 360 h, Preemergence, 31 g ai/ha, scale 0 to 100 (0 no effect, 100 complete control), read-out: Plant response rating, Velvetleaf",80%
same,pest or weed control at 62 g/ha,"[6]; Abutilon theophrasti, pre-emergence, 360 h, Preemergence, 62 g ai/ha, scale 0 to 100 (0 no effect, 100 complete control), read-out: Plant response rating, Velvetleaf",100%
same,pest or weed control at 125 g/ha,"[6]; Abutilon theophrasti, pre-emergence, 360 h, Preemergence, scale 0 to 100, 0 no effect, 100 complete control, read-out: Plant response rating, Velvetleaf",100%
same,Velvetleaf plant response rating,[6]; [10],100
same,"Cupgrass, Woolly plant response rating (0 to 100 scale)",[7]; [9],85
same,pest or weed control at 31 g/ha,"[7]; Eriochloa villosa, post-emergence, postemergence, scale 0 to 100, 0 is no effect, 100 is complete control, read-out: Plant response rating, Cupgrass, Woolly",85%
same,pest or weed control at 125 g/ha,"[7]; Eriochloa villosa, post-emergence, Postemergence, scale 0 to 100 (0 no effect, 100 complete control), read-out: Plant response rating, Cupgrass, Woolly",95%
same,pest or weed control at 250 g/ha,"[7]; Eriochloa villosa, post-emergence, Postemergence, 250 g ai/ha, scale 0 to 100 (0 no effect, 100 complete control), read-out: Plant response rating, Cupgrass, Woolly",95%
same,pest or weed control at 31 g/ha,"[7]; Eriochloa villosa, pre-emergence, Preemergence, scale 0 to 100 (0 no effect, 100 complete control), read-out: Plant response rating, Cupgrass, Woolly",5%
same,pest or weed control at 62 g/ha,"[7]; Eriochloa villosa, pre-emergence, Preemergence, 62 g ai/ha, scale 0 to 100, 0 no effect, 100 complete control, read-out: Plant response rating, Cupgrass, Woolly",50%
same,pest or weed control at 125 g/ha,"[7]; Eriochloa villosa, pre-emergence, Preemergence, scale 0 to 100, 0 no effect, 100 complete control, read-out: Plant response rating, Cupgrass, Woolly",85%
same,"Cupgrass, Woolly plant response rating",[7]; [10],95
same,"Nutsedge, Yellow plant response rating (0 to 100 scale)",[8]; [9],75
same,pest or weed control at 31 g/ha,"[8]; Cyperus, post-emergence, postemergence, scale 0 to 100, 0 is no effect, 100 is complete control, read-out: Plant response rating, Nutsedge, Yellow",65%
same,pest or weed control at 125 g/ha,"[8]; Cyperus, post-emergence, Postemergence, scale 0 to 100 (0 no effect, 100 complete control), read-out: Plant response rating, Nutsedge, Yellow",75%
same,pest or weed control at 250 g/ha,"[8]; Cyperus, post-emergence, Postemergence, 250 g ai/ha, scale 0 to 100 (0 no effect, 100 complete control), read-out: Plant response rating, Nutsedge, Yellow",75%
same,pest or weed control at 31 g/ha,"[8]; Cyperus, pre-emergence, Preemergence, scale 0 to 100 (0 no effect, 100 complete control), read-out: Plant response rating, Nutsedge, Yellow",65%
same,pest or weed control at 62 g/ha,"[8]; Cyperus, pre-emergence, Preemergence, 62 g ai/ha, scale 0 to 100 (0 no effect, 100 complete control), read-out: Plant response rating, Nutsedge, Yellow",80%
same,pest or weed control at 125 g/ha,"[8]; Cyperus, pre-emergence, Preemergence, scale 0 to 100, 0 no effect, 100 complete control, read-out: Plant response rating, Nutsedge, Yellow",90%
same,"Nutsedge, Yellow plant response rating",[8]; [10],90

# Source: US8952024B2, “Herbicidal pyrimidone derivatives” (E I du Pont de Nemours and Company, priority 2009, dated 2015)
